Reference: patent publication US9464076B2, “Benzothiophene derivative” (Daiichi Sankyo Company, Limited, priority 2013, dated 2016)

How the values were obtained:
[1] = system: Male C57BL/6 Cr mice; test: Test on suppression of phencyclidine-induced hyperlocomotion in mice; type: in vivo, mouse; conditions: locomotor activity, test compound 10 mg/kg oral, phencyclidine 5 mg/kg s.c. approx. 1 hour later, measured for 1 hour; for inhibition in vivo at 10 mg/kg: Mus musculus, po, 1 h
[2] = target: PDE10A (Homo sapiens (Human), UniProt Q9Y233); test: Measurement of PDE10A inhibitory activity-2 (PDE10A fraction prepared from MOLT-4 cells); type: biochemical; conditions: PDE10A fraction from MOLT-4 cells (peak around 250 mM NaCl)
Sequence of PDE10A (Q9Y233 whole entry): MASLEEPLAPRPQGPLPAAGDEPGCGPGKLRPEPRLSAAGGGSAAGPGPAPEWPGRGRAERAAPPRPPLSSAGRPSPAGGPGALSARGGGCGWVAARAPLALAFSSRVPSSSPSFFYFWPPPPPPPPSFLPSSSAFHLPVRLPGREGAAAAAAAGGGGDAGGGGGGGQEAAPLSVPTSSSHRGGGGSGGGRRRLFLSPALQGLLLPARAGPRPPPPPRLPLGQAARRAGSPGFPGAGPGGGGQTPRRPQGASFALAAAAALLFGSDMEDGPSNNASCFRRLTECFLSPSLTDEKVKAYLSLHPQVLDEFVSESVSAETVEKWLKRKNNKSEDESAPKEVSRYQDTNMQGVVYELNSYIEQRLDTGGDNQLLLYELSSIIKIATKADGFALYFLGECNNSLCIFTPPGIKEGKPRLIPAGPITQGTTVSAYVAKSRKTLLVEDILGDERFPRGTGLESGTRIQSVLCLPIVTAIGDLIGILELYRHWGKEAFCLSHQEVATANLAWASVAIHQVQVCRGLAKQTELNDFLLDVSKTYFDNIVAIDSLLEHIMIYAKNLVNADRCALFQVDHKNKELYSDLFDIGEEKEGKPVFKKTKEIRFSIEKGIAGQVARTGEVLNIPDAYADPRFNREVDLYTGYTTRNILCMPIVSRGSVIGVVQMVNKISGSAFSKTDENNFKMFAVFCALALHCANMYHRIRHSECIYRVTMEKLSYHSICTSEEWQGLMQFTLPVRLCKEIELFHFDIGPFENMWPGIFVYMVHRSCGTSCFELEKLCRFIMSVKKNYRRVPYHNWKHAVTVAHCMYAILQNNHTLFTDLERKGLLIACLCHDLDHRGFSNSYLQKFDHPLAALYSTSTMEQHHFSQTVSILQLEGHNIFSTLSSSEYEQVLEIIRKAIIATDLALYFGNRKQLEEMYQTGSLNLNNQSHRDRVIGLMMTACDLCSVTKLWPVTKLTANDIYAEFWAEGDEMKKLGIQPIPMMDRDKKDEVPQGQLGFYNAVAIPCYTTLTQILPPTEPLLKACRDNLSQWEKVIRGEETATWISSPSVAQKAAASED
Summary of the method: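 Enzyme source was a PDE10A-containing fraction from MOLT-4 cell soluble extract, resolved by HiTrap Q anion exchange with a 0–0.8 M NaCl gradient and selected by cAMP-hydrolysing activity. IC50 determined with this fraction by the same procedure as the preceding PDE10A assay.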

[3] = system: Male C57BL/6 Cr mice; test: Test on suppression of phencyclidine-induced hyperlocomotion in mice; type: in vivo; conditions: Mus musculus, oral, calculated by the linear regression method
[4] = target: PDE10A (H-PDE10A2, Human Phosphodiesterase 10A2) (Homo sapiens (Human), UniProt Q9Y233); test: Measurement of PDE10A inhibitory activity-1 (3H-cAMP, recombinant enzyme); type: biochemical; conditions: H-PDE10A2, 64 nM cAMP, 25° C., 2 hours
Sequence of PDE10A (H-PDE10A2, Human Phosphodiesterase 10A2) (Q9Y233 267-1055): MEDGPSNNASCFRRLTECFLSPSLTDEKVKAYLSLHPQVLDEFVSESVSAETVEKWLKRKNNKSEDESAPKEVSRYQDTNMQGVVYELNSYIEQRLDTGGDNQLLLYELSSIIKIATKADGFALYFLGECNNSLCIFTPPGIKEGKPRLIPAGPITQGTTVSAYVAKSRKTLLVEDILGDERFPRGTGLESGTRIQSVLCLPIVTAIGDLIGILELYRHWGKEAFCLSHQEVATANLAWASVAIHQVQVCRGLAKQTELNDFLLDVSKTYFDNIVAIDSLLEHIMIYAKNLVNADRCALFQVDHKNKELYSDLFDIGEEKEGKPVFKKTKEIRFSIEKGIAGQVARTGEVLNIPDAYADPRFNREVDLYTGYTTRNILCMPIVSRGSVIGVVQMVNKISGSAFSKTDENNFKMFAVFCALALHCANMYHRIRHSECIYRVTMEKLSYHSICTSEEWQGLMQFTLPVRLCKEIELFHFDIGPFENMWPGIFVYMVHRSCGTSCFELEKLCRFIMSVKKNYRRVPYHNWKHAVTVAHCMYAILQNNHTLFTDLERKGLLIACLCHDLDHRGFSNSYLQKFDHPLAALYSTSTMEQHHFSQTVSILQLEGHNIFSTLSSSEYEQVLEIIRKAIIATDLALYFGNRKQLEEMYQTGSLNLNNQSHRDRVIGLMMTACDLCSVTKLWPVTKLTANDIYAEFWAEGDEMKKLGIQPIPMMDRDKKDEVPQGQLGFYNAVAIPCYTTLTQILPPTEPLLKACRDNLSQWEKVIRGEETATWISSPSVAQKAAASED
Description: To a solution containing 20 mM Tris-HCl (pH 7.5), 1 mM MgCl2, 100 μM EDTA, 330 μg/ml bovine serum albumin, 50 kU/ml 5′-nucleotidase, 0.1 μCi ^3H-cAMP (64 nM cAMP), and PDE10A (H-PDE10A2, Human Phosphodiesterase 10A2, Scottish Biomedical), a test compound was added, and the mixture was reacted at 25° C. for 2 hours. To the reaction solution, QAE-Sephadex (17-0190-01, GE Healthcare Japan Corp.) suspended in 10 mM HEPES-Na (pH 7.0) (hereinafter, also referred to as a “QAE-Sephadex suspension”) was added, and the mixture was shaken for 1 minute and left standing for 5 minutes to obtain a supernatant. To the supernatant, a QAE-Sephadex suspension was further added, and the mixture was shaken for 1 minute and left standing for 5 minutes. Then, the obtained supernatant was transferred to LumaPlate (PerkinElmer, Inc.) and assayed using a radiation counter (TopCount NXT, PerkinElmer, Inc.).
The value of the sample reacted without the addition of both a test compound and PDE10A was defined as 0%, and the value of the sample reacted in the presence of PDE10A without the addition of a test compound was defined as 100%.

Row | IC50 [2] [nM] | IC50 [4] [nM] | IC50 ([2]; hydrochloride) [nM] | IC50 ([4]; hydrochloride) [nM] | IC50 ([2]; p-toluenesulfonate) [nM] | Compound | inhibition in vivo at 10 mg/kg [1] [%] | ED50 [3] [mg/kg] | % inhibition [1] [%]
1 | 0.23 | 0.42 | – | – | – | COCc1ccc(C(C)=O)c2sc(C(=O)Nc3cc(CN4CC[C@H](O)C4)c4ccccc4n3)c(C)c12 [Example 38, (S)-7-Acetyl-N-(4-((3-hydroxypyrrolidin-1-yl)methyl)quinolin-2-yl)-4-(methoxymethyl)-3-methylbenzo[b]thiophene-2-carboxamide] | 88 | 7 | –
2 | – | – | 0.93 | 1.9 | – | COCc1cccc2nc(NC(=O)c3sc4c(C(C)=O)ccc(COC)c4c3C)ccc12.Cl [Example 68, 7-Acetyl-4-(methoxymethyl)-N-(5-(methoxymethyl)quinolin-2-yl)-3-methylbenzo[b]thiophene-2-carboxamide hydrochloride] | – | 3.6 | 121
3 | 0.35 | 0.41 | – | – | – | COCc1ccc(C(C)=O)c2sc(C(=O)Nc3cc(CN4CC[C@@H](O)C4)c4ccccc4n3)c(C)c12 [Example 39, (R)-7-Acetyl-N-(4-((3-hydroxypyrrolidin-1-yl)methyl)quinolin-2-yl)-4-(methoxymethyl)-3-methylbenzo[b]thiophene-2-carboxamide] | 103 | 3.1 | –
4 | – | – | – | – | 0.5 | COCc1ccc(C(C)=O)c2sc(C(=O)Nc3ccc4c(C(=O)N5CC(OC)C5)cccc4n3)c(C)c12.Cc1ccc(S(=O)(=O)O)cc1 [Example 106, 7-Acetyl-N-(5-((3-methoxyazetidin-1-yl)carbonyl)quinolin-2-yl)-4-(methoxymethyl)-3-methylbenzo[b]thiophene-2-carboxamide p-toluenesulfonate] | – | 2.2 | 87
